Results: patent publication US8802597B2, “Herbicidal pyrimidines” (E I du Pont de Nemours and Company, priority 2003, dated 2014)

Experiments:
Experiment in all cases: Test G pre/postemergence
Assay type in all cases: in vivo
[1] = system: southern sandbur (Cenchrus echinatus)
Description: (§1) Seeds or nutlets of plant species selected from bermudagrass (Cynodon dactylon), Surinam grass (Brachiaria decumbens), large crabgrass (Digitaria sanguinalis), green foxtail (Setaria viridis), goosegrass (Eleusine indica), johnsongrass (Sorghum halepense), kochia (Kochia scoparia), pitted morningglory (Ipomoea lacunosa), purple nutsedge (Cyperus rotundus), common ragweed (Ambrosia elatior), black mustard (Brassica nigra), guineagrass (Panicum maximum), dallisgrass (Paspalum dilatatum), barnyardgrass (Echinochloa crus-galli), southern sandbur (Cenchrus echinatus), common sowthistle (Sonchus oleraceous), prickly sida (Sida spinosa), Italian ryegrass (Lolium multiflorum), common purslane (Portulaca oleracea), broadleaf signalgrass (Brachiaria platyphylla), common groundsel (Senecio vulgaris), common chickweed (Stellaria media), tropical spiderwort (Commelina benghalensis), annual bluegrass (Poa annua), downy bromegrass (Bromus tectorum), itchgrass (Rottboellia cochinchinensis), quackgrass (Elytrigia repens), Canada horseweed (Conyza canadensis), field bindweed (Convolvulus arvensis), spanishneedles (Bidens bipinnata), common mallow (Malva sylvestris), and Russian thistle (Salsola kali) were planted and treated preemergence with test chemicals formulated in a non-phytotoxic solvent mixture which included a surfactant.
(§2) At the same time, plants selected from these weed species were treated with postemergence applications of some of the test chemicals formulated in the same manner. Plants ranged in height from 2 to 18 cm (1- to 4-leaf stage) for postemergence treatments. Treated plants and controls were maintained in a greenhouse for 12 to 21 days, after which time all species were compared to controls and visually evaluated.
(§3) Plant response ratings, summarized in Table G, are based on a scale of 0 to 100 where 0 is no effect and 100 is complete control. A dash (-) response means no test result.

[2] = system: green foxtail (Setaria viridis)
Description: as §1, §2, §3

[3] = system: itchgrass (Rottboellia cochinchinensis)
Description: as §1, §2, §3

[4] = system: field bindweed (Convolvulus arvensis)
Description: as §1, §2, §3

[5] = Postemergence, 8 g ai/ha, scale 0 to 100
[6] = Postemergence, 16 g ai/ha, scale 0 to 100
[7] = Postemergence, 31 g ai/ha, scale 0 to 100
[8] = Postemergence, 62 g ai/ha, scale 0 to 100
[9] = Preemergence, 8 g ai/ha, scale 0-100
[10] = Preemergence, 16 g ai/ha, scale 0-100
[11] = Preemergence, 31 g ai/ha, scale 0-100
[12] = Preemergence, 62 g ai/ha, scale 0-100
[13] = Postemergence, 250 g ai/ha, scale 0 to 100
[14] = Postemergence, 125 g ai/ha, scale 0 to 100
[15] = Preemergence, 125 g ai/ha, scale 0-100
[16] = Preemergence, 250 g ai/ha, scale 0-100

CCOC(=O)c1nc(-c2ccc(Cl)cc2)nc(N)c1Cl [Compound 64, ethyl 6-amino-5-chloro-2-(4-chlorophenyl)-4-pyrimidinecarboxylate]
Plant response rating, Sandbur [1, 5]: 0 | Plant response rating, Sandbur [1, 6]: 0 | Plant response rating, Sandbur [1, 7]: 20 | Plant response rating, Sandbur [1, 8]: 20 | Plant response rating, Sandbur [1, 9]: 0 | Plant response rating, Sandbur [1, 10]: 0 | Plant response rating, Sandbur [1, 11]: 0 | Plant response rating, Sandbur [1, 12]: 0 | Plant response rating, Foxtail, Green [2, 5]: 0 | Plant response rating, Foxtail, Green [2, 6]: 0 | Plant response rating, Foxtail, Green [2, 7]: 0 | Plant response rating, Foxtail, Green [2, 8]: 0 | Plant response rating, Foxtail, Green [2, 9]: 0 | Plant response rating, Foxtail, Green [2, 10]: 0 | Plant response rating, Foxtail, Green [2, 11]: 0 | Plant response rating, Foxtail, Green [2, 12]: 0 | Plant response rating, Itchgrass [3, 5]: 0 | Plant response rating, Itchgrass [3, 6]: 0 | Plant response rating, Itchgrass [3, 7]: 0 | Plant response rating, Itchgrass [3, 8]: 60 | Plant response rating, Itchgrass [3, 9]: 0 | Plant response rating, Itchgrass [3, 10]: 0 | Plant response rating, Itchgrass [3, 11]: 0 | Plant response rating, Itchgrass [3, 12]: 20 | Plant response rating, Bindweed, Field [4, 5]: 60 | Plant response rating, Bindweed, Field [4, 6]: 70 | Plant response rating, Bindweed, Field [4, 7]: 80 | Plant response rating, Bindweed, Field [4, 8]: 90 | Plant response rating, Bindweed, Field [4, 9]: 0 | Plant response rating, Bindweed, Field [4, 10]: 0 | Plant response rating, Bindweed, Field [4, 11]: 0 | Plant response rating, Bindweed, Field [4, 12]: 65

Nc1nc(C2CC2)nc(C(=O)[O-])c1Cl.[Na+] [Compound 77, 6-amino-5-chloro-2-cyclopropyl-4-pyrimidinecarboxylic acid monosodium salt]
Plant response rating, Sandbur [1, 13]: 40 | Plant response rating, Sandbur [1, 6]: 0 | Plant response rating, Sandbur [1, 7]: 0 | Plant response rating, Sandbur [1, 8]: 10 | Plant response rating, Sandbur [1, 14]: 35 | Plant response rating, Sandbur [1, 10]: 0 | Plant response rating, Sandbur [1, 11]: 20 | Plant response rating, Sandbur [1, 12]: 100 | Plant response rating, Sandbur [1, 15]: 100 | Plant response rating, Sandbur [1, 16]: 100 | Plant response rating, Foxtail, Green [2, 13]: 40 | Plant response rating, Foxtail, Green [2, 6]: 0 | Plant response rating, Foxtail, Green [2, 7]: 0 | Plant response rating, Foxtail, Green [2, 8]: 35 | Plant response rating, Foxtail, Green [2, 14]: 40 | Plant response rating, Foxtail, Green [2, 10]: 0 | Plant response rating, Foxtail, Green [2, 11]: 5 | Plant response rating, Foxtail, Green [2, 12]: 65 | Plant response rating, Foxtail, Green [2, 15]: 85 | Plant response rating, Foxtail, Green [2, 16]: 90 | Plant response rating, Itchgrass [3, 13]: 80 | Plant response rating, Itchgrass [3, 6]: 0 | Plant response rating, Itchgrass [3, 7]: 35 | Plant response rating, Itchgrass [3, 8]: 65 | Plant response rating, Itchgrass [3, 14]: 70 | Plant response rating, Itchgrass [3, 10]: 0 | Plant response rating, Itchgrass [3, 11]: 10 | Plant response rating, Itchgrass [3, 12]: 45 | Plant response rating, Itchgrass [3, 15]: 85 | Plant response rating, Itchgrass [3, 16]: 90 | Plant response rating, Bindweed, Field [4, 13]: 100 | Plant response rating, Bindweed, Field [4, 6]: 70 | Plant response rating, Bindweed, Field [4, 7]: 98 | Plant response rating, Bindweed, Field [4, 8]: 98 | Plant response rating, Bindweed, Field [4, 14]: 100 | Plant response rating, Bindweed, Field [4, 10]: 80 | Plant response rating, Bindweed, Field [4, 11]: 90 | Plant response rating, Bindweed, Field [4, 12]: 95 | Plant response rating, Bindweed, Field [4, 15]: 100 | Plant response rating, Bindweed, Field [4, 16]: 100
